Test results reported in article PMC3326523, “Histone Recognition and Large-Scale Structural Analysis of the Human Bromodomain Family” (Cell, 2012).
Like-named read-outs stand apart in the source and are kept apart here. Where no end group is shown, it is not given here.

Experiments:
33 representative BRDs = experiment: SPOT peptide array of singly acetylated histone peptides; assay type: binding, human; details: His6-tagged BRDs 1 μM; in words
Procedure: Peptides were synthesized on cellulose membranes using a MultiPep SPOT peptide arrayer (Intavis). His6-tagged BRDs were added to a final concentration of 1 μM, and blots were developed using an ECL kit (Thermo Scientific) following the manufacturer's protocol.
Three different types of SPOT membrane were utilized in order to probe preferences of BRD recognition sites: the first array contained peptides from all four core histones (H2A, H2B, H3 and H4) covering all possible lysine acetylation sites, with peptide sizes ranging from 10 to 14 amino acids. […]
Peptides for the first two arrays were synthesized directly on cellulose membranes (Intavis) using a MultiPep SPOT peptide arrayer (Intavis) and commercially available standard (Intavis) or modified (Bachem) L-amino acid precursors as previously described ([Nady et al., 2008]). The quality of the synthesized array was evaluated as follows: i) immune reactive peptides were identified by incubation of the membrane with an anti-His antibody in the absence of any His6-tagged BRD. […]
Each membrane was washed 3 times in PBST, blocked for 1 hr with 10% milk in PBST, and washed again 3 × 5 min with PBST. […] Chem-illuminescence was detected with an Image reader (Fujifilm LAS-4000 ver.2.0) with an incremental exposure time of 5 min for a total of 80 min. […]

CREBBP = biological target: T1, CREBBP (Homo sapiens, UniProt Q92793); experiment: Isothermal titration calorimetry (ITC) of histone peptides; assay type: binding
T1 construct: His6 tag with TEV cleavage site (N, cleaved yes); made in house; host or cells: E. coli BL21(DE3)-R3
T1 sequence (Q92793 with tags, fused parts or gaps): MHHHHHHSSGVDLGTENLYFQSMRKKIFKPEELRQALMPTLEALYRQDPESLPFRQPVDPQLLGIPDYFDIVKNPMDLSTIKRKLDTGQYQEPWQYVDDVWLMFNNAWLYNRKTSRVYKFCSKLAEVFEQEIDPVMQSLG

Molecule	interaction with BRDs in SPOT array of singly acetylated peptides (33 representative BRDs)	other results
H2BK85: promiscuous H2BK85-containing array peptide (AHYNK(Ac)RSTITSRE)	interacted with most BRDs	–
CC(=O)NCCCC[C@H](NC(=O)CNC(=O)CNC(=O)[C@@H](NC(=O)[C@H](COP(=O)(O)O)NC(=O)[C@@H](N)CCCCN)[C@@H](C)O)C(=O)N[C@@H](C)C(=O)N1CCC[C@H]1C(=O)N[C@@H](CCCNC(=N)N)C(=O)N[C@@H](CCCCNC(C)=O)C(=O)N[C@@H](CCC(N)=O)C(=O)N[C@@H](Cc1ccc(O)cc1)C(=O)O [H3pS10K14acK18ac]	–	Kd (CREBBP; ITC, 10 or 15°C, 50 mM HEPES pH 7.5, 150 mM NaCl, read-out: KD of CREBBP): 131 µM
CC(=O)NCCCC[C@H](NC(=O)CNC(=O)CNC(=O)[C@@H](NC(=O)[C@H](CO)NC(=O)[C@@H](N)CCCCN)[C@@H](C)O)C(=O)N[C@@H](C)C(=O)N1CCC[C@H]1C(=O)N[C@@H](CCCNC(=N)N)C(=O)N[C@@H](CCCCN)C(=O)N[C@@H](CCC(N)=O)C(=O)N[C@@H](Cc1ccc(O)cc1)C(=O)O [H3K14ac]	–	Kd (CREBBP): 733 µM
H2AK36: promiscuous H2AK36-containing array peptide (LLRK(Ac)GNYSERVGA)	interacted with most BRDs	–
